Test results reported in paper PMC8151276, “An Integrated Approach toward NanoBRET Tracers for Analysis of GPCR Ligand Engagement” (Molecules, 2021).
Blank lines part the entries; values can stand above or below the compound they belong to.

How the values were obtained:
Type in all cases: binding
[1] = target: T1, FZD5 (Homo sapiens, UniProt Q13467); assay: NanoBRET screen HiBiT-FZD5 in HEK293
T1 construct: purchased Promega (in-house HiBiT-GPCR construct library, NanoBRET)
Method: (§1) Each tracer candidate was screened across the entire library of HiBiT-GPCR constructs using NanoBRET as the detection modality. As depicted in Figure 4A, the specificity of interactions was evaluated through decrease in BRET due to competitive displacement of a bound tracer by excess parental compound. Each tracer was analyzed for binding to each HiBiT-GPCR fusion in the absence and in the presence of competing parental compound. Briefly, HEK293 cells were transfected with HiBiT-GPCR constructs diluted into promoterless DNA to reduce expression and maximize translocation to the cell surface. Each tracer candidate was then screened at concentrations of 1 μM and 0.1 μM across cells expressing these fusions. Cells were treated for 1.5 h with tracer either alone or in the presence of 20 μM competing parental compound (i.e., control). BRET was measured upon addition of purified LgBiT and subsequent complementation with HiBiT genetically fused to a GPCR. The specificity of interactions was assessed through a decrease in BRET signal due to competitive displacement of the bound tracer. To further gauge the robustness of these interactions, the fold response over the control (i.e., BRETtracer/BRETcontrol) was calculated. We chose a 1.5-fold response, which translates to ≥7-fold signal over noise as the minimal threshold required to score an interaction as positive. […]. Below we highlight the screening results obtained for our exemplary fluorescent tracers based on Clozapine, Amitriptyline and AZD1283.
(§2) HiBiT-GPCR DNA constructs were diluted in 10 mM Tris pH 8 to a final concentration of 0.01 μg/μL, arrayed in 96-well plates and stored at −20 °C. For transfection, HEK293 cells were suspended in Opti-MEM (without phenol red) supplemented with 2% fetal bovine serum (Seradigm) and 100 units/mL penicillin–streptomycin (Gibco) at a final concentration of 220,000 cells/mL and dispensed into white 96-well plates at 90 μL/well. Subsequent transfections and screens were carried using an Agilent Bravo Automated Liquid Handling Platform. First, the 96-well HiBiT DNA arrays were diluted 25-fold in Opti-MEM (without serum or phenol red) to a final concentration of 0.0004 μg/μL and 20 μL of the diluted DNAs were transferred into new 96-well plates. Next, promoterless carrier DNA (1 μg/μL) was diluted 25-fold (0.04 μg/μL) and then dispensed into the diluted arrays at 20 μL/well. Following brief mixing, Viafect transfection reagent (Promega) diluted 16-fold into Opti-MEM was dispensed into the plates at 40 μL/well. After mixing by pipetting, plates were incubated for 10 min on the pipetting station deck. The DNA-transfection reagent complexes were then added to plates containing cells. To facilitate the screen, 10 μL of DNA-transfection reagent complexes were added in duplicates to the top 4 and bottom 4 rows, resulting in two identical 48-well arrays per plate. Plates with transfected cells were incubated for 18–20 h at 37 °C/5% CO2. A screen of each tracer across the entire library using two different concentrations requires duplicate plates of transfected cells. Depending on the number of tracers being screened, transfections can be scaled up using the same ratios. The next day, for each tracer, four 20× screening solutions in tracer dilution buffer (Promega) were prepared: two duplicates at final concentration of 20 μM and two duplicates at a final concentration of 2 μM. A competing unmodified compound was added to one of each duplicate at a final concentration of 400 μM. The four resulting solutions were diluted 4-fold in Opti-MEM without serum or phenol red to generate 5× solutions (5 µM and 0.5 µM tracer +/− 100 μM competing compound). To screen the library, a BioTek MultiFlo FX liquid dispenser was used to dispense 22.5 µL of tracer solution to the top 4 rows and 22.5 µL tracer + competing compound solution to the 4 bottom rows. Plates were briefly mixed on an orbital shaker and incubated for 1.5 h at room temperature. […]

[2] = target: T2, AGTR1 (Homo sapiens, UniProt P30556); assay: NanoBRET screen HiBiT-AGTR1 in HEK293
T2 construct: purchased Promega (in-house HiBiT-GPCR construct library, NanoBRET)
T2 sequence (P30556 1-359): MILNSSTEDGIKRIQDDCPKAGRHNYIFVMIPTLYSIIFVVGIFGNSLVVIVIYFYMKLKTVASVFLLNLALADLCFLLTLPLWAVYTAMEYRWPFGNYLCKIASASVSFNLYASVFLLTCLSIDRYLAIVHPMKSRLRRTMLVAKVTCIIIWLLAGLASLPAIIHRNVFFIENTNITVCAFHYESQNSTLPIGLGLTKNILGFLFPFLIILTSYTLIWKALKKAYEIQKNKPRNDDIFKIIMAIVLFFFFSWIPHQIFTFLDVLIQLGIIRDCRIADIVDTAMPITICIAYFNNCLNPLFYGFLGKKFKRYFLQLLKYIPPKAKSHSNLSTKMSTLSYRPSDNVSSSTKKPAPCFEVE
Method: as §1, §2

[3] = target: T3, F2R (Homo sapiens, UniProt P25116); assay: NanoBRET screen HiBiT-F2R in HEK293
T3 construct: purchased Promega (in-house HiBiT-GPCR construct library, NanoBRET)
T3 sequence (P25116 22-425): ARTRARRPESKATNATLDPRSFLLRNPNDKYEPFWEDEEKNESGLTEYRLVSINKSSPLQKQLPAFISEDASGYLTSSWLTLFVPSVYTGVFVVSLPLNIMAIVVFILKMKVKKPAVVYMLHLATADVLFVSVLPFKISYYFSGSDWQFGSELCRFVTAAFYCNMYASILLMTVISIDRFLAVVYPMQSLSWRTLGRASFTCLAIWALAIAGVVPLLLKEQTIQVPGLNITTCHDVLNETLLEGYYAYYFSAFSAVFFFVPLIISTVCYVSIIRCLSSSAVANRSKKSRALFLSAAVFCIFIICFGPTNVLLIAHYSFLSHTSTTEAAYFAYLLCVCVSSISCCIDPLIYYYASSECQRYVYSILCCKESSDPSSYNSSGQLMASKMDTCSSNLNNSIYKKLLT
Method: as §1, §2

[4] = target: T4, TACR3 (Homo sapiens, UniProt P29371); assay: NanoBRET screen HiBiT-TACR3 in HEK293
T4 construct: purchased Promega (in-house HiBiT-GPCR construct library, NanoBRET)
T4 sequence (P29371 1-465): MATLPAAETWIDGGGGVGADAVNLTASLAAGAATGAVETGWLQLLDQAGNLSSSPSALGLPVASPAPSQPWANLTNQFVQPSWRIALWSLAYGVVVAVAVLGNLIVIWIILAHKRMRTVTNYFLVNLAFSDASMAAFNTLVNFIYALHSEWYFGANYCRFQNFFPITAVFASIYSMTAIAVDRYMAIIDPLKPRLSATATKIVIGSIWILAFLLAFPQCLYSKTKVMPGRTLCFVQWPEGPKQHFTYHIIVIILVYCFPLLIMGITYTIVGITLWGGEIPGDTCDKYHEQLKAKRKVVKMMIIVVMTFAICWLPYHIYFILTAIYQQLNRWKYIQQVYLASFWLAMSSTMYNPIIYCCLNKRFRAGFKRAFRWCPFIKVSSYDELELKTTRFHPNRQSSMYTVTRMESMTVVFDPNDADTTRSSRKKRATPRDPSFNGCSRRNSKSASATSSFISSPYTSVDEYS
Method: as §1, §2

[5] = tracer at 1μM, listed as amitriptyline-b-2-NB590
[6] = tracer at 0.1μM, listed as amitriptyline-b-2-NB590

T1 sequence (Q13467 27-585): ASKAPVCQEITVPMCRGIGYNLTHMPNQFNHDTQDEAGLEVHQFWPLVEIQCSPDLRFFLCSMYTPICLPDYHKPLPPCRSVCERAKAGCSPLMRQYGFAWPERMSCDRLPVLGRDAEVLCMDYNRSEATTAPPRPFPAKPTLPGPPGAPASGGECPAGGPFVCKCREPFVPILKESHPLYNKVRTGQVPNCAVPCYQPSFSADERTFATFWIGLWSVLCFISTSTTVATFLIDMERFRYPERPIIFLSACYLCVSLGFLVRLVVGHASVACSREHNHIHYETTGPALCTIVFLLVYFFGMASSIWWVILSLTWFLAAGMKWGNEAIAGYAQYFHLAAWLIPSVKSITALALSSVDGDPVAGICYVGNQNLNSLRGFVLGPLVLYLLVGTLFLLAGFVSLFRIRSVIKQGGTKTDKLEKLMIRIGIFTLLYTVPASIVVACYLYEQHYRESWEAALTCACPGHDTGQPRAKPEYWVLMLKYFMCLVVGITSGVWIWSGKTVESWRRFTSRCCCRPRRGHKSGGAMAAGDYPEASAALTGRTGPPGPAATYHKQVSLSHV

NanoBRET Fold Response ([1]; FZD5, tracer 0.1μM): 1.06
NanoBRET Fold Response ([1]; FZD5, tracer 1μM): 1.05
NanoBRET Fold Response ([2]; AGTR1, tracer 0.1μM): 1.00
NanoBRET Fold Response ([2]; AGTR1, tracer 1μM): 0.96
NanoBRET Fold Response ([3]; F2R, tracer 0.1μM): 1.06
NanoBRET Fold Response ([3]; F2R, tracer 1μM): 1.00
NanoBRET Fold Response ([4]; TACR3, tracer 0.1μM): 1.06
NanoBRET Fold Response ([4]; TACR3, tracer 1μM): 1.06
SMILES: N#CN=C(NCCCOc1cccc(CN2CCCCC2)c1)NCCNC(=O)CCOCCOCCOCCOCCNC(=O)CCc1ccc2n1[B-](F)(F)[N+]1=C(c3ccc[nH]3)C=CC1=C2 [Aminopotentidine-2-NB590]

NanoBRET Fold Response ([1]; FZD5, 0.1μM): 1.07
NanoBRET Fold Response ([1]; FZD5, 1μM): 1.05
NanoBRET Fold Response ([2]; AGTR1, 0.1μM): 1.01
NanoBRET Fold Response ([2]; AGTR1, 1μM): 1.05
NanoBRET Fold Response ([3]; F2R, 0.1μM): 1.01
NanoBRET Fold Response ([3]; F2R, 1μM): 1.01
NanoBRET Fold Response ([4]; TACR3, 0.1μM): 1.10
NanoBRET Fold Response ([4]; TACR3, 1μM): 1.10
SMILES: CCOC(=O)c1cc(C#N)c(N2CCC(C(=O)NS(=O)(=O)Cc3ccccc3/C=C/C(=O)NCCNC(=O)CCc3ccc4n3[B-](F)(F)[N+]3=C(c5ccc[nH]5)C=CC3=C4)CC2)nc1C [AZD1283-1-NB590]

SMILES: CN(C)CCC=C1c2ccccc2CCc2ccc(C(=O)NCCNC(=O)CCOCCOCCOCCOCCNC(=O)CCc3ccc4n3[B-](F)(F)[N+]3=C(c5ccc[nH]5)C=CC3=C4)cc21 [Amitriptyline-b-2-NB590]
NanoBRET Fold Response ([1]; tracer at 0.1μM): 0.97
NanoBRET Fold Response [1, 5]: 0.99
NanoBRET Fold Response [2, 6]: 1.12
NanoBRET Fold Response [2, 5]: 0.81
NanoBRET Fold Response [3, 6]: 0.76
NanoBRET Fold Response [3, 5]: 0.97
NanoBRET Fold Response [4, 5]: 0.97

SMILES: CN(C)CCC=C1c2ccccc2CCc2ccc(C(=O)NCCNC(=O)CCOCCOCCOCCOCCNC(=O)CCc3ccc4n3[B-](F)(F)[N+]3=C(c5ccc[nH]5)C=CC3=C4)cc21 [Amitriptyline-a-2-NB590]
NanoBRET Fold Response ([1]; tracer at 0.1μM): 1.01
NanoBRET Fold Response ([1]; tracer at 1μM): 0.97
NanoBRET Fold Response ([2]; tracer at 0.1μM): 1.04
NanoBRET Fold Response ([2]; tracer at 1μM): 1.00
NanoBRET Fold Response ([3]; tracer at 0.1μM): 0.94
NanoBRET Fold Response ([3]; tracer at 1μM): 0.98
NanoBRET Fold Response ([4]; tracer at 1μM): 1.03

SMILES: O=C(CCc1ccc2n1[B-](F)(F)[N+]1=C(c3ccc[nH]3)C=CC1=C2)NCCOCCOCCNC(=O)OCCOCCN1CCN(C2=Nc3ccccc3Sc3ccccc32)CC1 [Quetiapine-a-2-NB590]
NanoBRET Fold Response ([1]; FZD5, tracer 0.1μM): 1.03
NanoBRET Fold Response ([1]; FZD5, tracer 1μM): 0.91
NanoBRET Fold Response ([2]; AGTR1, tracer 0.1μM): 1.00
NanoBRET Fold Response ([2]; AGTR1, tracer 1μM): 0.92
NanoBRET Fold Response ([3]; F2R, tracer 0.1μM): 1.09
NanoBRET Fold Response ([3]; F2R, tracer 1μM): 1.41
NanoBRET Fold Response ([4]; TACR3, tracer 0.1μM): 1.04
NanoBRET Fold Response ([4]; TACR3, tracer 1μM): 0.83
